In PubChem BioAssay (NCI):
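Method: 48-hour compound exposure of cells in 96-well plates, five concentrations, linear interpolation of endpoints. Abbreviation: GI50, concentration required for 50% inhibition of growth. TGI is the concentration that stops growth completely.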

What was measured:
Assay in all cases: NCI anticancer screen, dose series, 48 h
U251 CNS = tested on: U251 CNS
ACHN renal = tested on: ACHN renal
HS 578T breast = tested on: HS 578T breast
SK-MEL-2 melanoma = tested on: SK-MEL-2 melanoma
HOP-62 NSCLC = tested on: HOP-62 NSCLC
RXF 393 renal = tested on: RXF 393 renal
SF-295 CNS = tested on: SF-295 CNS
IGROV1 ovarian = tested on: IGROV1 ovarian
HL-60(TB) leukemia = tested on: HL-60(TB) leukemia
MDA-MB-231 breast = tested on: MDA-MB-231 breast
OVCAR-5 ovarian = tested on: OVCAR-5 ovarian
NCI-H23 lung = tested on: NCI-H23 lung
CCRF-CEM leukemia = tested on: CCRF-CEM leukemia
BT-549 breast = tested on: BT-549 breast
NCI/ADR-RES ovarian = tested on: NCI/ADR-RES ovarian
MALME-3M melanoma = tested on: MALME-3M melanoma
M14 melanoma = tested on: M14 melanoma
COLO 205 colon = tested on: COLO 205 colon
T-47D breast = tested on: T-47D breast
HCC-2998 colon = tested on: HCC-2998 colon
DU-145 prostate = tested on: DU-145 prostate
MCF7 breast = tested on: MCF7 breast
HCT-116 colon = tested on: HCT-116 colon
OVCAR-3 ovarian = tested on: OVCAR-3 ovarian
SW-620 colon = tested on: SW-620 colon
786-0 renal = tested on: 786-0 renal
K-562 leukemia = tested on: K-562 leukemia
MDA-MB-435 = tested on: MDA-MB-435
SR leukemia = tested on: SR leukemia
EKVX NSCLC = tested on: EKVX NSCLC
SK-MEL-5 melanoma = tested on: SK-MEL-5 melanoma
TK-10 renal = tested on: TK-10 renal
SK-OV-3 ovarian = tested on: SK-OV-3 ovarian
OVCAR-4 ovarian = tested on: OVCAR-4 ovarian
NCI-H460 lung = tested on: NCI-H460 lung
UACC-257 melanoma = tested on: UACC-257 melanoma
A498 renal = tested on: A498 renal
PC-3 prostate = tested on: PC-3 prostate
SF-539 CNS = tested on: SF-539 CNS
SN12C renal = tested on: SN12C renal
MOLT-4 leukemia = tested on: MOLT-4 leukemia
HOP-92 NSCLC = tested on: HOP-92 NSCLC
CAKI-1 renal = tested on: CAKI-1 renal
NCI-H522 lung = tested on: NCI-H522 lung
KM12 colon = tested on: KM12 colon
A549 NSCLC = tested on: A549 NSCLC
HT29 colon = tested on: HT29 colon
UACC-62 melanoma = tested on: UACC-62 melanoma
SK-MEL-28 melanoma = tested on: SK-MEL-28 melanoma
SNB-75 CNS = tested on: SNB-75 CNS
RPMI-8226 leukemia = tested on: RPMI-8226 leukemia
LOX IMVI melanoma = tested on: LOX IMVI melanoma
HCT-15 colon = tested on: HCT-15 colon
UO-31 renal = tested on: UO-31 renal
SNB-19 CNS = tested on: SNB-19 CNS
SF-268 CNS = tested on: SF-268 CNS
OVCAR-8 ovarian = tested on: OVCAR-8 ovarian
NCI-H226 lung = tested on: NCI-H226 lung

Cc1cc(Nc2cc(N3CCN(C)CC3)nc(/C=C/c3ccccc3)n2)n[nH]1
GI50 (U251 CNS): 0.883 µM | TGI (U251 CNS): > 6.76 µM | GI50 (ACHN renal): 0.205 µM | TGI (ACHN renal): 3.92 µM | GI50 (HS 578T breast): 0.517 µM | TGI (HS 578T breast): 1.86 µM | GI50 (SK-MEL-2 melanoma): 0.702 µM | TGI (SK-MEL-2 melanoma): > 2.39 µM | GI50 (HOP-62 NSCLC): 0.768 µM | TGI (HOP-62 NSCLC): > 3.98 µM | GI50 (RXF 393 renal): 0.246 µM | TGI (RXF 393 renal): 1.04 µM | GI50 (SF-295 CNS): 0.707 µM | TGI (SF-295 CNS): > 4.64 µM | GI50 (IGROV1 ovarian): 0.0542 µM | TGI (IGROV1 ovarian): 1.62 µM | GI50 (HL-60(TB) leukemia): 0.32 µM | TGI (HL-60(TB) leukemia): 2.57 µM | GI50 (MDA-MB-231 breast): 0.966 µM | TGI (MDA-MB-231 breast): 9.95 µM | GI50 (OVCAR-5 ovarian): 0.866 µM | TGI (OVCAR-5 ovarian): > 9.04 µM | GI50 (NCI-H23 lung): 1.14 µM | TGI (NCI-H23 lung): > 5.23 µM | GI50 (CCRF-CEM leukemia): 0.412 µM | TGI (CCRF-CEM leukemia): > 10 µM | GI50 (BT-549 breast): 1.12 µM | TGI (BT-549 breast): > 8.73 µM | GI50 (NCI/ADR-RES ovarian): 2.03 µM | TGI (NCI/ADR-RES ovarian): > 10 µM | GI50 (MALME-3M melanoma): 0.796 µM | TGI (MALME-3M melanoma): > 4.77 µM | GI50 (M14 melanoma): 0.343 µM | TGI (M14 melanoma): > 3.81 µM | GI50 (COLO 205 colon): 0.44 µM | TGI (COLO 205 colon): > 2.03 µM | GI50 (T-47D breast): 1.77 µM | TGI (T-47D breast): > 9.46 µM | GI50 (HCC-2998 colon): 0.839 µM | TGI (HCC-2998 colon): 4.42 µM | GI50 (DU-145 prostate): 1.04 µM | TGI (DU-145 prostate): > 10 µM | GI50 (MCF7 breast): 0.235 µM | TGI (MCF7 breast): > 7.88 µM | GI50 (HCT-116 colon): 0.201 µM | TGI (HCT-116 colon): > 10 µM | GI50 (OVCAR-3 ovarian): 1.2 µM | TGI (OVCAR-3 ovarian): > 10 µM | GI50 (SW-620 colon): 0.294 µM | TGI (SW-620 colon): > 10 µM | GI50 (786-0 renal): 0.789 µM | TGI (786-0 renal): > 6.25 µM | GI50 (K-562 leukemia): 0.644 µM | TGI (K-562 leukemia): > 10 µM | GI50 (MDA-MB-435): 0.406 µM | TGI (MDA-MB-435): > 5.28 µM | GI50 (SR leukemia): 0.103 µM | TGI (SR leukemia): 2.19 µM | GI50 (EKVX NSCLC): 1.21 µM | TGI (EKVX NSCLC): > 7.24 µM | GI50 (SK-MEL-5 melanoma): > 2.11 µM | TGI (SK-MEL-5 melanoma): > 4.15 µM | GI50 (TK-10 renal): 0.797 µM | TGI (TK-10 renal): > 5.11 µM | GI50 (SK-OV-3 ovarian): 1.35 µM | TGI (SK-OV-3 ovarian): > 10 µM | GI50 (OVCAR-4 ovarian): 0.644 µM | TGI (OVCAR-4 ovarian): > 10 µM | GI50 (NCI-H460 lung): 0.29 µM | TGI (NCI-H460 lung): > 5.52 µM | GI50 (UACC-257 melanoma): 1.98 µM | TGI (UACC-257 melanoma): > 5.32 µM | GI50 (A498 renal): 0.389 µM | TGI (A498 renal): 1.66 µM | GI50 (PC-3 prostate): 0.794 µM | TGI (PC-3 prostate): > 6.61 µM | GI50 (SF-539 CNS): 0.718 µM | TGI (SF-539 CNS): 2.05 µM | GI50 (SN12C renal): 0.62 µM | TGI (SN12C renal): > 10 µM | GI50 (MOLT-4 leukemia): 0.186 µM | TGI (MOLT-4 leukemia): > 10 µM | GI50 (HOP-92 NSCLC): 0.476 µM | TGI (HOP-92 NSCLC): 1.95 µM | GI50 (CAKI-1 renal): 0.223 µM | TGI (CAKI-1 renal): > 5.38 µM | GI50 (NCI-H522 lung): 0.336 µM | TGI (NCI-H522 lung): > 2.19 µM | GI50 (KM12 colon): 0.0426 µM | TGI (KM12 colon): > 3.84 µM | GI50 (A549 NSCLC): 0.501 µM | TGI (A549 NSCLC): > 10 µM | GI50 (HT29 colon): 0.542 µM | TGI (HT29 colon): > 6.77 µM | GI50 (UACC-62 melanoma): 1.07 µM | TGI (UACC-62 melanoma): > 3.51 µM | GI50 (SK-MEL-28 melanoma): 1.41 µM | TGI (SK-MEL-28 melanoma): > 5.48 µM | GI50 (SNB-75 CNS): 0.391 µM | TGI (SNB-75 CNS): 2.12 µM | GI50 (RPMI-8226 leukemia): 1.69 µM | TGI (RPMI-8226 leukemia): > 3.14 µM | GI50 (LOX IMVI melanoma): 0.334 µM | TGI (LOX IMVI melanoma): 1.51 µM | GI50 (HCT-15 colon): 0.326 µM | TGI (HCT-15 colon): > 10 µM | GI50 (UO-31 renal): 0.263 µM | TGI (UO-31 renal): 2.7 µM | GI50 (SNB-19 CNS): 1.49 µM | TGI (SNB-19 CNS): > 10 µM | GI50 (SF-268 CNS): 0.845 µM | TGI (SF-268 CNS): > 4.08 µM | GI50 (OVCAR-8 ovarian): 1.68 µM | TGI (OVCAR-8 ovarian): > 10 µM | GI50 (NCI-H226 lung): 1.29 µM | TGI (NCI-H226 lung): > 9.46 µM
